# Laboratory results: US8975235B2, “Lysophosphatidic acid receptor antagonists” (InterMune, Inc., priority 2011, dated 2015)
# Legend:
# Assay type in all cases: cell-based
# Human LPA1 [1] = target: T1, Human LPA1 (Homo sapiens, UniProt Q92633); test: Beta-Arrestin based assay for human LPA1R antagonists (PathHunter); parameters: host or cells: CHO; conditions: CHO cells stably expressing ProLink tagged human LPA1R; agonist LPA 0.5 micromolar
# In short: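 CHO cells stably expressing ProLink-tagged human LPA1R with β-arrestin–EA fusion, assayed by β-galactosidase complementation. Antagonists tested against 0.5 micromolar LPA ([…]), in quadruplicate. End-point luminescence fitted to a 4-parameter logistic to give IC50.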
# Human LPA1 [2] = target: T1, Human LPA1; test: LPA1 calcium flux assay; parameters: the full-length cDNA for human LPA1 is obtained by PCR of the reverse transcription reaction; expressed in transfected cells; host or cells: CHO; conditions: human LPA1 expressing CHO cells; stimulated with 10 nM LPA; read-out: Ca Flux LPA1 IC50
# Method: Establishment of a CHO Cell Line Stably Expressing Human LPA1
# A 1.1 kb cDNA encoding the human LPA1 receptor is cloned from human lung. Human lung RNA (Clontech Laboratories, Inc. USA) is reverse transcribed using the RETROscript kit (Ambion, Inc.) and the full-length cDNA for human LPA1 is obtained by PCR of the reverse transcription reaction. The nucleotide sequence of the cloned human LPA1 is determined by sequencing and is confirmed to be identical to the published human LPA1 sequence (An et al. Biochem. Biophys. Res. Commun. 231:619 (1997). The cDNA is cloned into the pcDNA5 pcDNA5/FRT expression plasmid and is transfected in CHO cells using lipofectamine 2000 (Invitrogen Corp., USA). Clones stably expressing human LPA1 are selected using hygromycin and identified as cells that show Ca-influx in response to LPA.
# (§1) LPA1 and LPA3 Calcium Flux Assays
# (§2) Human LPA1 or LPA3 expressing CHO cells were seeded at 20,000-45,000 cells per well in a 96-well poly-D-lysine coated plate one or two days before the assay. Prior to the assay, the cells were washed once with PBS and then cultured in serum-free media overnight. On the day of the assay, a calcium indicator dye (Calcium 4, Molecular Devices) in assay buffer (HBSS with Ca^2+ and Mg^2+ and containing 20 mM Hepes and 0.3% fatty-acid free human serum albumin) was added to each well and incubation continued for 1 hour at 37° C. 10 μl of test compounds in 2.5% DMSO were added to the cells and incubation continued at room temperature for 30 minutes. Cells were then stimulated by the addition of 10 nM LPA and intracellular Ca^2+ measured using the Flexstation 3 (Molecular Devices). IC50s were determined using Graphpad prism analysis of drug titration curves.
# Human LPA3 = target: T2, Human LPA3 (Homo sapiens, UniProt Q9UBY5); test: LPA3 calcium flux assay; conditions: human LPA3 expressing CHO cells; stimulated with 10 nM LPA; read-out: Ca Flux LPA3 IC50
# T2 construct: The full-length cDNA fragment for human LPA3 is obtained by PCR from the vector; expressed in transfected cells; host or cells: CHO
# T2 sequence (Q9UBY5 1-353): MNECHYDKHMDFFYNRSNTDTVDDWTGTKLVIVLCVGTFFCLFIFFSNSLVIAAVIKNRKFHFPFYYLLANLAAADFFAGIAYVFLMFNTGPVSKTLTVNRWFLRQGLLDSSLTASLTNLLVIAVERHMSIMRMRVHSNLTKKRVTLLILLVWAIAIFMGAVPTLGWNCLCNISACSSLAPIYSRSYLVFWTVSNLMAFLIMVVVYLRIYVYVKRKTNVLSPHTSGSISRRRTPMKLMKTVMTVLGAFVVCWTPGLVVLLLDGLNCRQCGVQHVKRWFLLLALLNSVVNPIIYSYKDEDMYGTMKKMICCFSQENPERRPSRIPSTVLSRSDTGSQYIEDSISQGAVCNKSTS
# Method: Establishment of a CHO Cell Line Stably Expressing Human LPA3
# A vector containing the human LPA3 receptor cDNA is obtained from the Missouri S&T cDNA Resource Center (www.cdna.org). The full-length cDNA fragment for human LPA3 is obtained by PCR from the vector. The nucleotide sequence of the cloned human LPA3 is determined by sequencing and is confirmed to be identical to the published human LPA3 sequence (NCBI accession number NM_012152). The cDNA is cloned into the pcDNA5 pcDNA5/FRT expression plasmid and is transfected in CHO cells using lipofectamine 2000 (Invitrogen Corp., USA). Clones stably expressing human LPA3 are selected using hygromycin and identified as cells that show Ca-influx in response to LPA.
# as §1, §2
# T1 sequence (Q92633 whole entry, the tested form may be a part): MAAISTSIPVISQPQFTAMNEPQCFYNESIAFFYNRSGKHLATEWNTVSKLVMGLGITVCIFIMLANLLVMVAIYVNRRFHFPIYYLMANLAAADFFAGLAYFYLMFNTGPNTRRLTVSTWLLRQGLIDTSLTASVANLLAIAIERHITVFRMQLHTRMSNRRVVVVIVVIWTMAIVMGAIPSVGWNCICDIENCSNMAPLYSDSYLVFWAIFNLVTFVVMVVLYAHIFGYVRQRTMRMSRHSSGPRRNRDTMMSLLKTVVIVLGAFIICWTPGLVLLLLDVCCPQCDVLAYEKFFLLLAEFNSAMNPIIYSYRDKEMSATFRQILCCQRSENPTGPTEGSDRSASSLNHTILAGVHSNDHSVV
EC50 (Human LPA1 [1]) [nM],IC50 (Human LPA1 [2]) [nM],IC50 (Human LPA3) [nM],SMILES
< 50,< 50,> 500,Cc1nnn(-c2ccc(-c3ccc(C4(C(=O)O)CC4)cc3)cc2)c1NC(=O)O[C@H](C)c1ccccc1 [Compound 65]
< 50,< 50,> 500,Cc1noc(-c2ccc(-c3ccc(C4(C(=O)O)CC4)cc3)cc2)c1NC(=O)O[C@H](C)c1ccccc1 [Compound 74]
< 50,50 to 500,> 500,C[C@@H](OC(=O)Nc1c(-c2ccc(-c3ccc(C4(C(=O)O)CC4)cc3)cc2)oc2cnccc12)c1ccccc1Cl [Compound 149]
< 50,50 to 500,50 to 500,C[C@@H](OC(=O)Nc1c(-c2ccc(-c3ccc(C4(C(=O)O)CC4)cc3)cc2)oc2ncccc12)c1ccccc1 [Compound 152]
< 50,> 500,> 500,C[C@@H](OC(=O)Nc1c(-c2ccc(-c3ccc(C4(C(=O)O)CC4)cc3)cc2)oc2ncccc12)c1ccccc1Cl [Compound 153]
< 50,< 50,> 500,C[C@@H](OC(=O)Nc1c(-c2ccc(-c3ccc(C4(C(=O)O)CC4)cc3)cc2)cnn1C)c1ccccc1 [Compound 170]
< 50,< 50,> 500,C[C@@H](OC(=O)Nc1c(-c2ccc(-c3ccc(C4(C(=O)O)CC4)cc3)cc2)cnn1C)c1ccccc1Cl [Compound 171]
